The text below walks through data of patent US9085517B2, “Sulfonamide derivatives” (Pfizer Limited, priority 2011, dated 2015).

pIC50: −log10 of the molar value. Structures can show the parent of a compound that is named as a salt.

The target in this test is T1, Nav1.7 (or SCN9A) channel (Homo sapiens, UniProt Q15858).
T1 construct: expressed in transfected cells
T1 sequence (Q15858 whole entry): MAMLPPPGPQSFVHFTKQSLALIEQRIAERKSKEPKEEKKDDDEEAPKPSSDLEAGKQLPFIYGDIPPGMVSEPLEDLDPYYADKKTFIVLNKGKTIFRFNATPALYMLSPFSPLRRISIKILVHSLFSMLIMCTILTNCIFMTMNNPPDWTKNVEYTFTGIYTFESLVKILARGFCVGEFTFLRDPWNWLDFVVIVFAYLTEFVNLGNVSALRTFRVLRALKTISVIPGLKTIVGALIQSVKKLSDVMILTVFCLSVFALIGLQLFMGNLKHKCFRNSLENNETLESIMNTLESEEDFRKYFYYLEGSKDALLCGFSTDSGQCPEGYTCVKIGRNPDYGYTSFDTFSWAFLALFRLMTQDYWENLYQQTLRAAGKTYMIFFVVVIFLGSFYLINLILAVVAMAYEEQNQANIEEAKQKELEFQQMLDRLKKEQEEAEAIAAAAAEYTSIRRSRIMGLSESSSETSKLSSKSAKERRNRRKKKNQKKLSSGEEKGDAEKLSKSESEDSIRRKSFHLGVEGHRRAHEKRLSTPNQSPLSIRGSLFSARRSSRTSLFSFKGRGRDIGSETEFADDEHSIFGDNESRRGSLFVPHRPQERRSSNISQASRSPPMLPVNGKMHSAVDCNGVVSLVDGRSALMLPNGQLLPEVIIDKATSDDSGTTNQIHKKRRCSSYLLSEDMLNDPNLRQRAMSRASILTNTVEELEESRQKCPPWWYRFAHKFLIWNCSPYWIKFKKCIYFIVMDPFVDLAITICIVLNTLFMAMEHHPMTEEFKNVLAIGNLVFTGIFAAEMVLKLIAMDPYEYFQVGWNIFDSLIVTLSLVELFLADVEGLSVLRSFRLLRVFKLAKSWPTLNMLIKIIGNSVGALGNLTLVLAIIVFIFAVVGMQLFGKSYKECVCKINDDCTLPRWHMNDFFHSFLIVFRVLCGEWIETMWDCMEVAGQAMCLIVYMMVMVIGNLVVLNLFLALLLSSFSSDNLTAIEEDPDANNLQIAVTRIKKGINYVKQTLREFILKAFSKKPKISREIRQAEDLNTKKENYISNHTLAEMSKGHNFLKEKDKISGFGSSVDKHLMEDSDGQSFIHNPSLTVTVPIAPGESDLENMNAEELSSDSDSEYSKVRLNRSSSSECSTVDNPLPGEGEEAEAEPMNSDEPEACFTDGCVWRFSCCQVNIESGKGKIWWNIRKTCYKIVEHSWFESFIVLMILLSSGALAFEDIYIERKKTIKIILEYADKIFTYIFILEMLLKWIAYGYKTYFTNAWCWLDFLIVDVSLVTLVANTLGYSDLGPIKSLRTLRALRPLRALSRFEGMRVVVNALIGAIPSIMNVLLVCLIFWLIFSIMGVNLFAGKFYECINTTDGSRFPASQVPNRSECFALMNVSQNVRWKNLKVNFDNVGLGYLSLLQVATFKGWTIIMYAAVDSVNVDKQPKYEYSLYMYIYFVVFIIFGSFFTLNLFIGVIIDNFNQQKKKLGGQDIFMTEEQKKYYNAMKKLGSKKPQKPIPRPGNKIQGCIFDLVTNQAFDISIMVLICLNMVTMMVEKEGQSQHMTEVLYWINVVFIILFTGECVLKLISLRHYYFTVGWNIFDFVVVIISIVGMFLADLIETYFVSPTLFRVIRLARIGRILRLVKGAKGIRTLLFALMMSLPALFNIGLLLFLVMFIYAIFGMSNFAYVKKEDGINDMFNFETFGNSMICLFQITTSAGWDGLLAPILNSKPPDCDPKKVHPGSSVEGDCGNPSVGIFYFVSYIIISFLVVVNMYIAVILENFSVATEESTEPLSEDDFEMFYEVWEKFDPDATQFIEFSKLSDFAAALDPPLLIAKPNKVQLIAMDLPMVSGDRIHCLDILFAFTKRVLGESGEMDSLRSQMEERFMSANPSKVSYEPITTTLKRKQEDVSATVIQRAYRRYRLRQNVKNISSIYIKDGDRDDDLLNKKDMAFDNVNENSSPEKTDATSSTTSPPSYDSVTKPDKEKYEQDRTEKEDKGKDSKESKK
Kind of test: Nav1.7 (hSCN9A) block, whole-cell electrophysiology on the PatchXpress platform. Type of test: cell-based. The conditions noted are these: estimated IC50 from single point electrophysiology data, HEK cells stably expressing hSCN9A, prepulse to V1/2, read-out: Nav1.7 EIC50. How it is done:
The ability of the compounds of formula (I) to block the Nav1.7 (or SCN9A) channel were measured using the assay described below.
Human Embryonic Kidney (HEK) cells were transfected with an hSCN9A construct using lipofectamine reagent (Invitrogen), using standard techniques. Cells stably expressing the hSCN9A constructs were identified by their resistance to G-418 (400 μg/ml). Clones were screened for expression using the whole-cell voltage-clamp technique.
HEK cells stably transfected with hSCN9A were maintained in DMEM medium supplemented with 10% heat-inactivated fetal bovine serum and 400 μg/ml G-418 in an incubator at 37° C. with a humidified atmosphere of 10% CO2. For HTS, cells were harvested from flasks by trypsinization and replated in an appropriate multi-well plate (typically 96 or 384 wells/plate) such that confluence would be achieved within 24 hours of plating. For electrophysiological studies, cells were removed from the culture flask by brief trypsinization and re-plated at low density onto glass cover slips. Cells were typically used for electrophysiological experiments within 24 to 72 hours after plating.
Cover slips containing HEK cells expressing hSCN9A were placed in a bath on the stage of an inverted microscope and perfused (approximately 1 ml/minutes) with extracellular solution of the following composition: 138 mM NaCl, 2 mM CaCl2, 5.4 mM KCl, 1 mM MgCl2, 10 mM glucose, and 10 mM HEPES, pH 7.4, with NaOH. […] The osmolarity of the extracellular and intracellular solutions was 300 mOsm/kg and 295 mOsm/kg, respectively. All recordings were made at room temperature (22-24° C.) using AXOPATCH 200B amplifiers and PCLAMP software (Axon Instruments, Burlingame, Calif.).
hSCN9A currents in HEK cells were measured using the whole-cell configuration of the patch-clamp technique (Hamill et al., 1981). Uncompensated series resistance was typically 2 to 5 mega ohms and >85% series resistance compensation was routinely achieved. As a result, voltage errors were negligible and no correction was applied. Current records were acquired at 20 to 50 KHz and filtered at 5 to 10 KHz.
HEK cells stably transfected with hSCN9A were viewed under Hoffman contrast optics and placed in front of an array of flow pipes emitting either control or compound-containing extracellular solutions. All compounds were dissolved in dimethyl sulfoxide to make 10 mM stock solutions, which were then diluted into extracellular solution to attain the final concentrations desired. […] The voltage-dependence of inactivation was determined by applying a series of depolarizing prepulses (8 sec long in 10 mV increments) from a negative holding potential. The voltage was then immediately stepped to 0 mV to assess the magnitude of the sodium current. Currents elicited at 0 mV were plotted as a function of prepulse potential to allow estimation of the voltage at which 50% of the channels were inactivated (midpoint of inactivation or V1/2). Compounds were tested for their ability to inhibit hSCN9A sodium channels by activating the channel with a 20 msec voltage step to 0 mV following an 8 second conditioning prepulse to the empirically determined V1/2. Compound effect (% inhibition) was determined by difference in current amplitude before and after application of test compounds. For ease of comparison, “estimated IC-50” (EIC50) values were calculated from single point electrophysiology data by the following equation, (tested concentration, uM)×(100−% inhibition/% inhibition). Inhibition values <20% and >80% were excluded from the calculation.
Electrophysiological assays were conducted with PatchXpress 7000 hardware and associated software (Molecular Devices Corp). All assay buffers and solutions were identical to those used in conventional whole-cell voltage clamp experiments described above. hSCN9A cells were grown as above to 50%-80% confluency and harvested by trypsinization. […]
Consider `CN(C)S(=O)(=O)NC(=O)c1cc(F)c(COc2ccc(F)c(Cl)c2)cc1F` [Example 11, 4-[(3-chloro-4-fluorophenoxy)methyl]-N-[(dimethylamino)sulfonyl]-2,5-difluorobenzamide], for which the pIC50 is 6.24.
For `O=C(NS(=O)(=O)N1CC(F)(F)C1)c1cc(Cl)c(COc2cnc(C3CC3)c(Cl)c2)cc1F` [Example 16, 5-chloro-4-{[(5-chloro-6-cyclopropylpyridin-3-yl)oxy]methyl}-N-[(3,3-difluoroazetidin-1-yl)sulfonyl]-2-fluorobenzamide], the pIC50 was 6.57.
For the compound `CN(C)S(=O)(=O)NC(=O)c1cc(F)c(OCc2ccc(Cl)c(Cl)c2)cc1F` [Example 3, 4-[(3,4-Dichlorobenzyl)oxy]-N-[(dimethylamino)sulfonyl]-2,5-difluorobenzamide], the pIC50 was 5.89.
Take `CN(C)S(=O)(=O)NC(=O)c1cc(F)c(COc2ccc(Cl)c(F)c2)cc1F` [Example 8, 4-[(4-chloro-3-fluorophenoxy)methyl]-N-[(dimethylamino)sulfonyl]-2,5-difluorobenzamide]: the pIC50 was 6.07.
Take `O=C(NS(=O)(=O)N1CCC1)c1cc(Cl)c(COc2cnc(C3CC3)c(Cl)c2)cc1F` [Example 15, N-(azetidin-1-ylsulfonyl)-5-chloro-4-{[(5-chloro-6-cyclopropylpyridin-3-yl)oxy]methyl}-2-fluorobenzamide]: the pIC50 was 7.05.
Turning to `CN(C)S(=O)(=O)NC(=O)c1cc(F)c(COc2ccc(C(F)(F)F)c(Cl)c2)cc1F` [Example 2, 4-{[3-Chloro-4-(trifluoromethyl)phenoxy]methyl}-N-[(dimethylamino)sulfonyl]-2,5-difluorobenzamide], the pIC50 was 6.96.
For the compound `CC(C)Oc1ncc(OCc2cc(F)c(C(=O)NS(=O)(=O)N3CCC3)cc2F)cc1Cl` [Example 13, N-(azetidin-1-ylsulfonyl)-4-{[(5-chloro-6-isopropoxypyridin-3-yl)oxy]methyl}-2,5-difluorobenzamide], the pIC50 was 6.82.
As for `CC(C)Oc1ncc(OCc2cc(F)c(C(=O)NS(=O)(=O)N(C)C)cc2F)cc1Cl` [Example 1, 4-{[(5-Chloro-6-isopropoxypyridin-3-yl)oxy]methyl}-N-[(dimethylamino)sulfonyl]-2,5-difluorobenzamide], the figure is 6.62; as for `CN(C)S(=O)(=O)NC(=O)c1cc(Cl)c(COc2cnc(C3CC3)c(Cl)c2)cc1F` [Example 14, 5-chloro-4-{[(5-chloro-6-cyclopropylpyridin-3-yl)oxyl]methyl}-N-[(dimethylamino)sulfonyl]-2-fluorobenzamide diethylamine salt], 6.38.
For the compound `CN(C)S(=O)(=O)NC(=O)c1cc(F)c(COc2ccc(C#N)c(Cl)c2)cc1F` [Example 9, 4-[(3-chloro-4-cyanophenoxy)methyl]-N-[(dimethylamino)sulfonyl]-2,5-difluorobenzamide], the pIC50 is less than 5.52.
Turning to `CN(C)S(=O)(=O)NC(=O)c1cc(F)c(COc2ccc(Cl)c(C(F)(F)F)c2)cc1F` [Example 6, 4-{[4-chloro-3-(trifluoromethyl)phenoxy]methyl}-N-[(dimethylamino)sulfonyl]-2,5-difluorobenzamide], the pIC50 was 6.70.
Regarding `CN(C)S(=O)(=O)NC(=O)c1cc(F)c(COc2ccc(Cl)c(Cl)c2)cc1F` [Example 10, 4-[(3,4-dichlorophenoxy)methyl]-N-[(dimethylamino)sulfonyl]-2,5-difluorobenzamide], the pIC50 was 6.46.
Take `CN(C)S(=O)(=O)NC(=O)c1ccc(OCc2ccc(Cl)c(Cl)c2)cc1` [Example 12, 4-[(3,4-dichlorobenzyl)oxy]-N-[(dimethylamino)sulfonyl]benzamide]: the pIC50 is 5.64.
On to `CC(C)Oc1ncc(COc2cc(F)c(C(=O)NS(=O)(=O)N(C)C)cc2F)cc1Cl` [Example 7, 4-[(5-chloro-6-isopropoxypyridin-3-yl)methoxy]-N-[(dimethylamino)sulfonyl]-2,5-difluorobenzamide], for which the pIC50 was 5.08.
As for `CN(C)S(=O)(=O)NC(=O)c1ccc(COc2ccc(Cl)c(C(F)(F)F)c2)cc1` [Example 4, 4-{[4-chloro-3-(trifluoromethyl)phenoxy]methyl}-N-[(dimethylamino)sulfonyl]benzamide], the figure is 5.82.
In the case of `CN(C)S(=O)(=O)NC(=O)c1ccc(COc2ccc(C(F)(F)F)c(Cl)c2)cc1` [Example 5, 4-{[3-chloro-4-(trifluoromethyl)phenoxy]methyl}-N-[(dimethylamino)sulfonyl]benzamide], the pIC50 was 6.04.
